In patent US11759791B2, “Jet milling method” (VECTURA LIMITED, priority 2015, dated 2023):

Experiment: Particle size analysis (wet analysis), Malvern Mastersizer 3000 Hydro MV
Format: physicochemical
Details: unmicronised / as supplied, wet analysis method
Protocol: […] The pump speed was set to 3000 rpm. […] The dispersed particles were added to the dispersion unit to reach an obscuration of 5-15%. The optical properties used included a refractive index of 1.52 and an absorption value of 1.0 for the glycopyrrolate, and a refractive index of 1.45 and an absorption value of 1.0 for the magnesium stearate and a refractive index of 1.391 for the iso-octane. Six replicates were performed per measurement.

| Compound | D10 particle size of source powder [μm] | D50 particle size of source powder [μm] | D90 particle size of source powder [μm] |
| --- | --- | --- | --- |
| magnesium stearate | 2.8 | 8.8 | 27.4 |
| C[N+]1(C)CCC(OC(=O)C(O)(c2ccccc2)C2CCCC2)C1 (stereo not drawn) [Unmicronised glycopyrrolate, glycopyrrolate] | 20.6 | 148.7 | 409.7 |
